Paper PMC7489219 (Molecular Brain, 2020)
Where a name gives a salt, the structure may show the parent alone.

These compounds were tested on T1, primary mouse cortical neurons (assay: cells). Conditions: Cortical neurone, 20 h, read-out: % inhibition, inhibition of NMDA-induced cell death (protection score), 30 min pre-treatment.
T1 construct: primary cortical neurons, DIV 10
Set-up: Protection from NMDA-induced (30 uM, 10 min) neuronal death; Hoechst nuclear morphology by automated microscopy
Method in brief: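 On DIV 10, primary mouse cortical neurons were given compound at 10 μM for 30 min at 37 °C, then 30 μM NMDA for 10 min, washed, and kept 20 h with compound. Dead cells were scored by nuclear morphology, and % protection was derived from survival relative to vehicle + NMDA and untreated controls.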
`O=S(=O)(O)CCS` [Mesna (Uromitexan, Mesnex)] was tested, and the inhibition at 10 µM was -0.811%. `Cc1ccc(C)c(OCCCC(C)(C)C(=O)O)c1` [Gemfibrozil (Lopid)] showed an inhibition at 10 µM of 2.6%. With `CN/C(=N\CCSCc1nc[nH]c1C)NC#N` [Cimetidine (Tagamet)] the inhibition at 10 µM was -0.847%. For `NCCCC(O)(P(=O)(O)O)P(=O)(O)O` [Alendronate (Fosamax)], the inhibition at 10 µM was 40.1%. With `COC[C@@H](c1ccc(C(F)(F)F)cc1)N1CCN(C2(C)CCN(C(=O)c3c(C)ncnc3C)CC2)C[C@@H]1C` [Vicriviroc Malate] the inhibition at 10 µM was 0.113%. With `COc1c(N2C[C@@H]3CCCN[C@@H]3C2)c(F)cc2c(=O)c(C(=O)O)cn(C3CC3)c12` [Moxifloxacin hydrochloride] the inhibition at 10 µM was 0.0291%. `C#C[C@]1(O)CC[C@H]2[C@@H]3CCC4=CC(=O)CC[C@@H]4[C@H]3CC[C@@]21CC` [Levonorgestrel (Levonelle)] showed an inhibition at 10 µM of -1.05%. Compound `C#C[C@]1(O)C=C[C@H]2[C@@H]3CCC4=CC(=O)CC[C@@H]4[C@H]3CC[C@@]21CC` [Gestodene] has an inhibition at 10 µM of -1.48%. Work on `CN1[C@@H]2CC[C@H]1C[C@@H](OC(=O)c1c[nH]c3ccccc13)C2` [Tropisetron] yielded an inhibition at 10 µM of -4.08%. With `COc1ccc(-c2cc(=O)c3c(OC)c(OC)c(OC)c(OC)c3o2)cc1OC` [Nobiletin (Hexamethoxyflavone)] the inhibition at 10 µM was -0.471%. `C[C@]12CC[C@@H]3c4ccc(O)cc4CC[C@H]3[C@@H]1CC[C@@H]2O` [Estradiol] gave an inhibition at 10 µM of 4.78%. Work on `CO[C@H]1C[C@@H]2CC[C@@H](C)[C@@](O)(O2)C(=O)C(=O)N2CCCC[C@H]2C(=O)O[C@H]([C@H](C)C[C@@H]2CC[C@@H](OC(=O)C(C)(CO)CO)[C@H](OC)C2)CC(=O)[C@H](C)/C=C(\C)[C@@H](O)[C@@H](OC)C(=O)[C@H](C)C[C@H](C)/C=C/C=C/C=C/1C` [Temsirolimus (Torisel)] yielded an inhibition at 10 µM of 1.56%. In the case of `O=c1[nH]cnc2nc[nH]c12` [Hypoxanthine], the inhibition at 10 µM is reported as 1.08%. Work on `CCN(CC)CCNC(=O)c1c(C)[nH]c(/C=C2\C(=O)Nc3ccc(F)cc32)c1C` [Sunitinib Malate (Sutent)] yielded an inhibition at 10 µM of 1.4%. With `Cc1c(OCC(F)(F)F)ccnc1C[S+]([O-])c1nc2ccccc2[nH]1` (stereo not shown) [Lansoprazole] the inhibition at 10 µM was -7.28%. `O=c1c(O)c(-c2ccc(O)cc2O)oc2cc(O)cc(O)c12` [Morin hydrate (Aurantica)] was tested, and the inhibition at 10 µM was -2.71%. `OC[C@H]1O[C@@H](Oc2ccc(O)cc2)[C@H](O)[C@@H](O)[C@@H]1O` [Arbutin (Uva, p-Arbutin)] was tested, and the inhibition at 10 µM was -0.469%. In the case of `CN(C)[C@@H]1C(=O)C(C(N)=O)=C(O)[C@@]2(O)C(=O)C3=C(O)c4c(O)cccc4[C@@](C)(O)[C@H]3[C@H](O)[C@@H]12` [Oxytetracycline (Terramycin)], the inhibition at 10 µM is reported as 2.79%. In the case of `C=CCc1ccc(O)c(-c2ccc(O)c(CC=C)c2)c1` [Honokiol], the inhibition at 10 µM is reported as -2.26%. `C=C[C@H]1CN2CC[C@H]1C[C@H]2[C@H](O)c1ccnc2ccccc12` [Cinchonidine] was tested, and the inhibition at 10 µM was -3.04%. With `CCCC(CCC)C(=O)O` [Divalproex sodium] the inhibition at 10 µM was 3.49%. In the case of `C=CC1=C(C(=O)O)N2C(=O)[C@@H](NC(=O)/C(=N\O)c3csc(N)n3)[C@H]2SC1` [Cefdinir (Omnicef)], the inhibition at 10 µM is reported as 44.5%. In the case of `CN(C)Cc1c[nH]c2ccccc12` [Gramine], the inhibition at 10 µM is reported as -3.83%. In the case of `O=c1[nH]cnc2c1ncn2[C@@H]1O[C@H](CO)[C@@H](O)[C@H]1O` [Inosine], the inhibition at 10 µM is reported as 19.8%. In the case of `CO/N=C(\C(=O)N[C@@H]1C(=O)N2C(C(=O)OCOC(=O)C(C)(C)C)=C(/C=C\c3scnc3C)CS[C@H]12)c1csc(N)n1` [Cefditoren pivoxil], the inhibition at 10 µM is reported as 8.16%. `CCC(C)(C)C(=O)O[C@H]1C[C@@H](C)C=C2C=C[C@H](C)[C@H](CC[C@@H]3C[C@@H](O)CC(=O)O3)[C@H]21` [Simvastatin (Zocor)] showed an inhibition at 10 µM of 2.21%. With `CCCN[C@H]1CCc2nc(N)sc2C1` [Pramipexole dihydrochloride monohydrate] the inhibition at 10 µM was -0.655%. For `CCCC[N+]1(C)[C@@H]2CC(OC(=O)[C@H](CO)c3ccccc3)C[C@H]1[C@@H]1O[C@@H]12` (stereo partly shown) [Butylscopolamine bromide (Scopolamine butylbromide)], the inhibition at 10 µM was 5%. Compound `CCCNC(C)C(=O)Nc1ccccc1C` (stereo not shown) [Prilocaine] has an inhibition at 10 µM of 7.71%. Work on `Nc1ccc(S(N)(=O)=O)cc1` [Sulfanilamide] yielded an inhibition at 10 µM of 17.7%. Compound `CN(C)CCc1c[nH]c2ccc(Cn3cncn3)cc12` [Rizatriptan Benzoate (Maxalt)] has an inhibition at 10 µM of 14.3%. `COc1c(C)c2c(c(O)c1C/C=C(\C)CCC(=O)O)C(=O)OC2` [Mycophenolic (Mycophenolate)] showed an inhibition at 10 µM of -10.2%. `CN1[C@@H]2CC[C@H]1CC(OC(=O)C(CO)c1ccccc1)C2` (stereo partly shown) [Atropine] was tested, and the inhibition at 10 µM was 9.73%. Compound `Cn1c(=O)c2[nH]cnc2n(C)c1=O` [Aminophylline (Truphylline)] has an inhibition at 10 µM of 12%. `Nc1ncnc2c1ncn2[C@@H]1O[C@H](CO)[C@@H](O)[C@@H]1O` [Vidarabine (Vira-A)] showed an inhibition at 10 µM of 20.1%. Work on `CN(C)CCc1ccc(O)cc1` [Hordenine] yielded an inhibition at 10 µM of -0.889%. `CCOc1cc(CC(=O)N[C@@H](CC(C)C)c2ccccc2N2CCCCC2)ccc1C(=O)O` [Repaglinide] showed an inhibition at 10 µM of -4.69%. `Nc1nc2c(ncn2[C@@H]2O[C@H](CO)[C@@H](O)[C@H]2O)c(=O)[nH]1` [Guanosine] gave an inhibition at 10 µM of -1.96%. With `C=CCc1ccc(O)c(-c2cc(CC=C)ccc2O)c1` [Magnolol] the inhibition at 10 µM was -3.4%. In the case of `CN(C)C(=O)Oc1ccc[n+](C)c1` [Pyridostigmine Bromide (Mestinon)], the inhibition at 10 µM is reported as 35.3%. `Nc1nc2c(ncn2COCCO)c(=O)[nH]1` [Acyclovir (Aciclovir)] gave an inhibition at 10 µM of -1.44%. Compound `N=c1nc(N2CCCCC2)cc(N)n1O` [Minoxidil] has an inhibition at 10 µM of -1.14%. `COC(=O)[C@H](c1ccccc1Cl)N1CCc2sccc2C1` [Clopidogrel (Plavix)] gave an inhibition at 10 µM of -12%. `COc1cc2c(cc1OC)-c1cc3ccc(OC)c(OC)c3c[n+]1CC2` [Palmatine chloride] was tested, and the inhibition at 10 µM was 8.5%. `Nc1nc(F)nc2c1ncn2[C@@H]1O[C@H](CO)[C@@H](O)[C@@H]1O` [Fludarabine (Fludara)] was tested, and the inhibition at 10 µM was 16.2%. For `COc1cc(C=O)ccc1O` [Vanillin], the inhibition at 10 µM was -1.73%. `O=c1c(-c2ccc(O)cc2)coc2cc(O)ccc12` [Daidzein] gave an inhibition at 10 µM of -2.08%. Compound `CCc1nc(N)nc(N)c1-c1ccc(Cl)cc1` [Pyrimethamine] has an inhibition at 10 µM of -0.769%. In the case of `CCN(CC)CCOc1ccc(C(=C(Cl)c2ccccc2)c2ccccc2)cc1` [Clomifene citrate (Serophene)], the inhibition at 10 µM is reported as -1.18%. `N[C@@H](Cc1ccc(O)c(O)c1)C(=O)O` [Levodopa (Sinemet)] showed an inhibition at 10 µM of 0.209%. `Nc1nc2[nH]cnc2c(=S)[nH]1` [Thioguanine] was tested, and the inhibition at 10 µM was 13%. `CC[C@]1(O)C[C@H]2CN(CCc3c([nH]c4ccccc34)[C@@](C(=O)OC)(c3cc4c(cc3OC)N(C=O)[C@H]3[C@@](O)(C(=O)OC)[C@H](OC(C)=O)[C@]5(CC)C=CCN6CC[C@]43[C@@H]65)C2)C1` [Vincristine] gave an inhibition at 10 µM of -7.5%. Compound `O=C1C=CC[C@@H]2[C@H]3CCCN4CCC[C@@H](CN12)[C@@H]34` [Sophocarpine] has an inhibition at 10 µM of 0.911%. `CC(=O)C1=C(O)C=C2Oc3c(C(C)=O)c(O)c(C)c(O)c3[C@@]2(C)C1=O` [(+)-Usniacin (D-Usnic acid)] showed an inhibition at 10 µM of -4.28%. Work on `OCc1ccccc1O[C@@H]1O[C@H](CO)[C@@H](O)[C@H](O)[C@H]1O` [Salicin (Salicoside, Salicine)] yielded an inhibition at 10 µM of -2.7%. With `CN(C)C(=N)NC(=N)N` [Metformin hydrochloride (Glucophage)] the inhibition at 10 µM was 10.2%. With `Cc1nc(-c2ccc(OCC(C)C)c(C#N)c2)sc1C(=O)O` [Febuxostat (Uloric)] the inhibition at 10 µM was -0.186%. `CCC[C@H](N[C@@H](C)C(=O)N1[C@H](C(=O)O)C[C@@H]2CCCC[C@@H]21)C(=O)OCC` [Perindopril Erbumine (Aceon)] was tested, and the inhibition at 10 µM was -1.31%. For `COC(=O)[C@@H]1CC2=CC(=O)CC[C@]2(C)[C@@]23O[C@@H]2C[C@@]2(C)[C@@H](CC[C@@]24CCC(=O)O4)[C@H]13` [Eplerenone], the inhibition at 10 µM was 6.59%. `COc1ccc2c(c1)c(CC(=O)O)c(C)n2C(=O)c1ccc(Cl)cc1` [Indomethacin (Indocid, Indocin)] was tested, and the inhibition at 10 µM was 3.41%. In the case of `COc1ccc([C@@H]2CC(=O)c3c(O)cc(O)cc3O2)cc1O` [Hesperetin], the inhibition at 10 µM is reported as -3.04%. `CCOC(=O)N1CCC(=C2c3ccc(Cl)cc3CCc3cccnc32)CC1` [Loratadine] was tested, and the inhibition at 10 µM was -11.1%. `Cc1oncc1C(=O)Nc1ccc(C(F)(F)F)cc1` [Leflunomide] gave an inhibition at 10 µM of 15.6%. `CC/C(=C(\c1ccccc1)c1ccc(OCCN(C)C)cc1)c1ccccc1` [Tamoxifen Citrate (Nolvadex)] showed an inhibition at 10 µM of -8.21%. Compound `NCCCCCC(=O)O` [Aminocaproic acid (Amicar)] has an inhibition at 10 µM of 25.5%. In the case of `Nc1ncnc2c1ncn2[C@@H]1O[C@H](CO)[C@@H](O)[C@H]1O` [Adenosine (Adenocard)], the inhibition at 10 µM is reported as 15.3%. `Cc1ccc(-c2cc(C(F)(F)F)nn2-c2ccc(S(N)(=O)=O)cc2)cc1` [Celecoxib] showed an inhibition at 10 µM of -7.05%. `C[C@@H](O[C@H]1OCCN(Cc2n[nH]c(=O)[nH]2)[C@H]1c1ccc(F)cc1)c1cc(C(F)(F)F)cc(C(F)(F)F)c1` [Aprepitant (MK-0869)] showed an inhibition at 10 µM of 17.6%. With `CC1=C(CC(=O)O)c2cc(F)ccc2/C1=C\c1ccc([S+](C)[O-])cc1` (stereo not shown) [Sulindac (Clinoril)] the inhibition at 10 µM was -5.67%. `Cc1cc2nc3c(=O)[nH]c(=O)nc-3n(C[C@H](O)[C@H](O)[C@H](O)CO)c2cc1C` [Riboflavin (Vitamin B2)] showed an inhibition at 10 µM of 1.7%. `C[C@H](N[C@@H](CCc1ccccc1)C(=O)O)C(=O)N1CCC[C@H]1C(=O)O` [Enalaprilat dihydrate] gave an inhibition at 10 µM of -4.34%. `CC(C)n1c(/C=C/[C@H](O)C[C@H](O)CC(=O)O)c(-c2ccc(F)cc2)c2ccccc21` (racemic) [Fluvastatin sodium (Lescol)] gave an inhibition at 10 µM of -2.48%. Compound `NC(=O)c1cccnc1` [Nicotinamide (Niacinamide)] has an inhibition at 10 µM of -2.77%.
